{
  "source": "patent US20020169101A1",
  "about": "“Treatment of sexual dysfunction” (priority 1999, published 2002)",
  "assay_type_in_all_cases": "in vivo, rat",
  "key": {"[1]": {"test": "Plasma sexual hormone levels in ovariectomised female rats (radioimmunoassay)", "description": "Ovariectomised adult female Sprague Dawley rats (180-200 g) were housed in groups of 6 in a reversed lighting system of 12 h light:dark (lights off 7.00-19.00 h). They were used for the experiments at least two weeks after ovariectomy. Forty eight hours before tests, the animals were primed with oestradiol benzoate (5 μg/0.1 ml in corn oil, s.c.). Progesterone (0.5 mg/0.1 ml, in corn oil, s.c.) was administered 4 h before blood collection, as a positive control. Compound (1) (3-10 mg/kg, i.p.) was administered in 50% 2-hydroxypropyl-β-cyclodextrin, 1 h prior to blood collection. Blood was collected from the trunk, after decapitation. It was immediately centrifuged (3500 r.p.m., 4° C., 5 min) and the plasmas frozen until assayed for hormonal content, using commercially available radioimmunoassay kits (^125I-labelled hormones) for oestradiol, progesterone, LH, FSH and prolactin."}, "[2]": {"test_system": "sexual behaviour of sexually dysfunctional male rats", "test": "Sexual behaviour of fluoxetine-induced sexually dysfunctional male rats", "settings": "fluoxetine-pretreated rats, Compound (1) 15 mg/kg or yohimbine 2 mg/kg i.p. 1 h before test", "description": "Sprague Dawley male rats (Charles River, UK) were kept, 4 rats per cage, in a reversed lighting regime (12:12 hours, lights off at 5.00 h), with free access to food and water. The rats were pre-selected by being presented with a receptive female at 4 days intervals, i.e. every third day (having 2 clear days between presentations) until completing 6-7 trials of baseline determination. The animals showing consistently vigorous behaviour (ejaculatory latencies <300s) were chosen for further experiments. Animals were treated for 3 consecutive days with either vehicle (water) or fluoxetine (20 mg/kg, i.p., in a 2 ml/kg dosing volume). On the fourth day, the animals treated with water received vehicle (veh+veh) and the animals treated with fluoxetine received one of the three following treatments: Compound (1) (15 mg/kg, dissolved in 50% 2-hydroxypropyl-β-cyclodextrin in saline), vehicle (cyclodextrine), or yohimbine (2 mg/kg dissolved in water). All treatments were administered i.p. in a 1 ml/kg volume, 1 h before tests.\n(§1) For all the sexual behaviour tests, the males were placed in an observation arena (50-60 cm diameter), starting 5 hours into the dark cycle and observed under red illumination. Three to 4 minutes after placing the male in the arena, a receptive female (ovariectomised, bearing a 7 mm Silastic implant of oestradiol benzoate) was introduced to the arena and the following parameters noted: Mount Latency: time (in seconds) taken between introduction of female and first mount. A maximum time of 15 minutes (900 seconds) was allowed, and the test terminated if no mounts were recorded within that time (FIG. 16), Ejaculation Latency: time (in seconds) taken from first intromission to ejaculation. A maximum time of 30 minutes (1800 seconds) was given, and the test terminated if ejaculation was not achieved in that time (FIG. 17), Percentage of males achieving ejaculation within 30 minutes was calculated (FIG. 18).\nA one-way ANOVA followed by Dunnett's t test was used to compare the fluoxetine+vehicle group and other groups for mount and ejaculatory latencies. Percentage of animals ejaculating was analysed using a Chi-square test followed by Fisher's test. (*: P<0.05, **: P<0.01, ***: P<0.001; n=15-19)."}, "[3]": {"test_system": "sexual behaviour of normal male rats", "test": "Sexual behaviour of normal (sexually vigorous) male rats", "settings": "Compound (1) 15 mg/kg or Fluoxetine 20 mg/kg i.p. 1 h before test", "description": "The potentially stimulatory effect of Compound (1) on male sexual behaviour has been tested on sexually vigorous rats. Sprague Dawley male rats (Charles River, UK) were kept, 4 rats per cage, in a reversed lighting regime (12:12 hours, lights off at 5.00 h), with free access to food and water. The rats were pre-selected by being presented with a receptive female at 4 days intervals, i.e. every third day (having 2 clear days between presentations) until completing 6-7 […] of baseline determination. The animals showing consistently vigorous behaviour (ejaculatory latencies <300s) were chosen for further experiments (n—24). Animals were randomised into three groups. All animals received all three treatments following a latin-square design. Treatments were administered once a week, with a baseline test in between treatments (4 days intervals between baseline and test day). Treatments were Compound (1) (15 mg/kg, dissolved in 50% 2-hydroxypropyl-β-cyclodextrin in saline), vehicle, or Fluoxetine (20 mg/kg dissolved in 100% DMSO). All treatments were administered i.p. in a 1 ml/kg volume, 1 h before tests.\nas §1, with “11), Intromission Latency: time (in seconds) taken between introduction of female and first intromission (FIG. 12), Number of Mounts: to reach ejaculation. When ejaculation was not reached, the number of mounts was not analyzed, Number of Intromissions: to reach ejaculation. When ejaculation was not reached, the number of intromissions was not analyzed (FIG. 13 is number of mounts+intromissions),” for “16),”, “14), and Refractory Period: time (in seconds) taken from ejaculation to the first mount” for “17), Percentage”, “the next series of sexual activity. In those animals reaching” for “males achieving”, “the test” for “within 30 minutes”, “terminated at the end of the refractory period, as indicated by the first mount of the next sexual cycle” for “calculated”, “15).” for “18).”\nA one-way ANOVA followed by Dunnett's t test was used to compare treated vs vehicle groups each day of testing, for all the sexual behaviour parameters. (*P<0.05, **P<0.01; n=15-16)."}},
  "data": [
    {"smiles": "COc1ccc(C2(CNC(=O)[C@](C)(Cc3c[nH]c4ccccc34)NC(=O)Nc3ccc([N+](=O)[O-])cc3)CCCCC2)nc1", "note": "[Compound (1), (S) 3-(1H-Indol-3-yl)-N-[1-(5-methoxy-pyridin-2-yl)-cyclohexyl-methyl]-2-methyl-2-[3-(4-nitro-phenyl)-ureido]-propionamide]", "values": [
      {"measurement": "plasma levels of progesterone", "setting": "[1]; Compound (1) 3-10 mg/kg i.p. 1 h, progesterone 0.5 mg s.c. 4 h before blood collection, vs vehicle (FIG. 6)", "value": "no effect"},
      {"measurement": "plasma levels of LH", "setting": "[1]; Compound (1) 3-10 mg/kg i.p. 1 h, progesterone 0.5 mg s.c. 4 h before blood collection, vs vehicle (FIG. 9)", "value": "no effect"},
      {"measurement": "plasma levels of oestradiol", "setting": "[1]; Compound (1) 3-10 mg/kg i.p. 1 h before blood collection (FIG. 7)", "value": "no effect"},
      {"measurement": "plasma levels of prolactin", "setting": "[1]; Compound (1) 3-10 mg/kg i.p. 1 h before blood collection (FIG. 8)", "value": "no effect"},
      {"measurement": "plasma levels of FSH", "setting": "[1]; Compound (1) 3-10 mg/kg i.p. 1 h before blood collection (FIG. 10)", "value": "no effect"},
      {"measurement": "Mount Latency", "setting": "[2]; vs fluoxetine+vehicle (FIG. 16)", "value": "significantly decreased"},
      {"measurement": "Ejaculation Latency", "setting": "[2]; vs fluoxetine+vehicle (FIG. 17)", "value": "significantly decreased"},
      {"measurement": "percentage of animals ejaculating", "setting": "[2]; vs fluoxetine+vehicle (FIG. 18)", "value": "increasing the percentage of animals ejaculating"},
      {"measurement": "Mount Latency", "setting": "[3]; vs vehicle (FIG. 11)", "value": "no effect on any of the parameters studied"},
      {"measurement": "Intromission Latency", "setting": "[3]; vs vehicle (FIG. 12)", "value": "no effect on any of the parameters studied"},
      {"measurement": "number of mounts and intromissions required to achieve ejaculation", "setting": "[3]; vs vehicle (FIG. 13)", "value": "no effect on any of the parameters studied"},
      {"measurement": "Ejaculation Latency", "setting": "[3]; vs vehicle (FIG. 14)", "value": "no effect on any of the parameters studied"},
      {"measurement": "Refractory Period", "setting": "[3]; vs vehicle (FIG. 15)", "value": "no effect on any of the parameters studied"}
    ]}
  ]
}
